Results from patent US20130123253A1, “MODULATORS OF CENTRAL NERVOUS SYSTEM NEUROTRANSMITTERS” (HUMAN BIOMOLECULAR RESEARCH INSTITUTE, priority 2004, published 2013).
Where two headings read alike, the source gives them in different places.

Experiments:
rodent PDE4 = assay: Inhibition of rodent PDE4 (rolipram binding sites); details: Table 4
Method: IC50 values for inhibitor interaction with this site were calculated by nonlinear regression analysis of competition curves for unlabeled PDE4 inhibitors; Ki values were determined according to the method of Cheng and Prusoff (1973). […] Competition curves for the PDE4 inhibitors were subjected to nonlinear regression analysis and IC50 values with which the inhibitors bind to each of the binding sites was determined; K1 values were determined according to the method of Cheng and Prusoff (1973).

human PDE4D3 = biological target: T1, human PDE4D3 (Homo sapiens, UniProt Q08499); assay: Inhibition of cAMP hydrolysis by recombinant human PDE4D3; format: biochemical
T1 construct: made in house; host or cells: Cos 7 cells (construct and cells a gift from Dr. Conti, Stanford)
Method: The PDE construct was transfected into Cos 7 cells in round culture dish (100×20 mm). The cells were then harvested and homogenized with lysis buffer. The crude homogenate was spun at maximum speed in a microfuge. The supernatant fluid was saved as an extract. […] The PDE construct and Cos 7 cells were a kind gift from Dr. Conti at the Stanford University School of Medicine.
(§1) PDE4 enzyme assays were carried out as described previously. Studies with recombinant PDE4 enzymes were carried out in the laboratory of Professor Marco Conti (Stanford University, Palo Alto, Calif.).

human PDE4B3 = biological target: T2, human PDE4B3 (Homo sapiens, UniProt Q07343); assay: Inhibition of cAMP hydrolysis by recombinant human PDE4B3; format: biochemical; details: Example 29
T2 construct: made in house
Method: as §1

human PDE4A1 = biological target: T3, human PDE4A1 (Homo sapiens, UniProt P27815); assay: Inhibition of cAMP hydrolysis by recombinant human PDE4A1; format: biochemical
T3 construct: made in house
Method: as §1

Balb/c mice = assay: Forced-swim test in Balb/c mice; format: in vivo, mouse; details: i.p. 23, 5 and 1 hr prior; fluoxetine 10 mg/kg, 18k/l or 14 10 mg/kg, 21 1 mg/kg
Method: The study was conducted according to a standard operation procedure and in accordance with all Federal regulations. Water and food were freely available in the home cages. […] Mice were given a swimming pretest session, once a day for two successive days. […] During the pretest and test sessions, each mouse was placed for […] in a plastic cylinder (45 cm high×20 cm diameter), which was filled to a depth of 28 cm with water (23±1° C.). The duration of immobility, which was defined as floating in an upright position without additional activity other than that necessary for the animal to keep its head above water, was recorded. For the subchronic administration tests, the animals were separated as above and vehicle or chemicals were given by i.p. administration 23, 5 and 1 hr before the FST. The subchronic experiments were done similar to the study described above except for the pretest training that was not carried out.
Mice in the first session were treated with vehicle or the drugs acutely, whereas mice in the second sessions were treated subchronically, i.e., vehicle or drugs were given i.p. 23, 5, and 1 hr before the FST. The experiment was performed similar to Experiment 1 except for the pretest training, which was not carried out in the second session.

ICR mice = assay: Forced-swim test in ICR mice; format: in vivo, mouse
Method: Forty male ICR mice, weighed 26.2±0.3 g, were housed in a temperature-controlled room (22-23° C.) and maintained on a 12-hour on 12-hour off light cycle (lights on at 6:00 AM). Water and food were freely available in the home cages. […] Saline containing the same percentage of DMSO was used as vehicle. The lower doses were tested followed by the larger doses 1 week later, when the mice were again randomly divided into four groups as described above. The forced-swim test (FST) was carried out as described previously. Mice were given a swimming pretest session, once a day for two successive days. Twenty-four hours after the last session, mice were injected vehicle or the lower dose of each test compound by the i.p. route 30 min prior to the FST. One week later, administration of the larger dose of each of the test compounds was repeated. During the pretest and test sessions, each mouse was placed for 6 min in a plastic cylinder (45 cm high×20 cm diameter), which was filled to a depth of 28 cm with water (23±1° C.). The duration of immobility, which was defined as floating in an upright position without additional activity other than that necessary for the animal to keep its head above water, was recorded.

[1] = Mouse liver microsome stability assay; format: in vitro ADME; details: for half life, mouse liver microsomes: NADPH; for MLM t1/2: Table 16
Method: (§2) A typical assay mixture contained either mouse or rat liver microsomes (0.5 mg of protein), […] potassium phosphate buffer (pH 7.4), 40 μM test compounds, 0.5 mM NADP+, 0.5 mM glucose-6-phosphate, 5 IU/mL glucose-6-phosphate dehydrogenase, 1 mg/mL diethylenetriaminepentaacetic acid (DETAPAC) and 5 mM MgCl2 in a final incubation volume of 0.1 mL. After 0, 10, 25, 40 and […], the incubations were stopped by the addition of 1 ml CH2Cl2/2-propanol (3:1 v:v). The mixture was centrifuged at 12,000×g for 1 min, and the organic layer was separated from the aqueous fraction. The organic fraction was evaporated with a stream of argon and the residue was taken up in methanol (200 μL) and injected into the HPLC system described above.
(§3) Microsomal incubations (final volume 0.25 mL) with the SSRIs, dual PDE4 inhibitor/SSRIs or PDE4 inhibitor was done with an HPLC assay as described above. Diluted stocks of either mouse, human or rat liver microsomes (0.5 mg of protein), […] potassium phosphate buffer (pH 7.4), 0.5 mM NADI)^+, 0.5 mM glucose-6-phosphate, 5 IU/mL glucose-6-phosphate dehydrogenase, 0.6 mM DETAPAC, and 3 mM MgC12 were combined and placed on ice. For a metabolic stability assay, either vehicle or 40 μM test compound was added and the incubation was initiated at 37° C. with constant shaking. After 0, 10, 25, 40 and 60 min, the incubations were stopped by the addition of 1 mL CH2Cl2/2-propanol (3:1, v:v). After thorough mixing, the organic layer was separated from the aqueous portion by centrifugation at 12,000×g. The organic material was evaporated with a stream of argon. The residue was dissolved in methanol (200 μL) and the sample was analyzed by HPLC.

[2] = Human liver microsome stability assay; format: in vitro ADME
Method: as §3

GRK2 = biological target: T4, GRK2 (Homo sapiens, UniProt P25098); assay: High throughput KinaseGlo kinase assay; format: biochemical
T4 construct: host or cells: gift of a collaborator (Professor Benovic, Thomas Jefferson University)
T4 sequence (P25098 1-689): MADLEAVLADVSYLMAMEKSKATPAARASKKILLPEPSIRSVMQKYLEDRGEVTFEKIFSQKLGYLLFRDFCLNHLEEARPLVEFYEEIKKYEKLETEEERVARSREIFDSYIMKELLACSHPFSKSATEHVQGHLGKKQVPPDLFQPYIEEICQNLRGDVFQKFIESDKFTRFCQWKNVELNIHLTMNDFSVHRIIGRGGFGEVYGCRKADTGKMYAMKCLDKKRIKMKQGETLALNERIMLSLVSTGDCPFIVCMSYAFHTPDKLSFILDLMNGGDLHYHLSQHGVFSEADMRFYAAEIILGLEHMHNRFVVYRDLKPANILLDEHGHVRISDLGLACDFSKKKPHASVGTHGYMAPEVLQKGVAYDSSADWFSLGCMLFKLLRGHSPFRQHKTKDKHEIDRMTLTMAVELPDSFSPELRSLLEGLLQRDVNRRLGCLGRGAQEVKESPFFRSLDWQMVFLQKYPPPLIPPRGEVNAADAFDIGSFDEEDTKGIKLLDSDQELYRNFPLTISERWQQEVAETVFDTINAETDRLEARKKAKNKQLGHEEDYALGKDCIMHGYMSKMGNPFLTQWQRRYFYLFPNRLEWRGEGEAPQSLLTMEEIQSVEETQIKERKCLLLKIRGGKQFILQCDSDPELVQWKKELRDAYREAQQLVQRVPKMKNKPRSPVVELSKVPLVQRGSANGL
From the text: A homogenous KinaseGlo assay was developed and conducted in a 96-well format. Briefly, the assay design allowed large numbers of tests to be done in a high throughput fashion using a 96-well plate reader system. The KinaseGlo assay involved transfer of γ-phosphate from [γ^33P]ATP by GRK2 to tubulin.

[3] = Rat liver microsome stability assay; format: in vitro ADME
Method: as §2
as §3, with “After 0, 10, 25, 40 and 60 min, the incubations were stopped by the addition of 1 mL CH2Cl2/2-propanol (3:1, v:v). After thorough mixing, the organic layer was separated from the aqueous portion by centrifugation at 12,000×g. The organic material was evaporated with a stream of argon.” left out

mice = assay: Morris water maze test; format: in vivo, mouse; details: 3 mg/kg, compared to control mice
Method: Compounds 19 and 115 were tested in a Morris water maze test. The escape latency (time to climb onto a hidden platform) for each mouse was recorded as a memory test. […] Compared to a group of control mice, compound 19 and 115 caused a 30% improvement in memory at 3 mg/kg. […] This is not completely unexpected as SSRIs often require repeated dosing to see a large and significant effect. […] Multiple dosing likely will increase the efficacy of the compounds tested.

T1 sequence (Q08499 1-673 isoform Q08499-2): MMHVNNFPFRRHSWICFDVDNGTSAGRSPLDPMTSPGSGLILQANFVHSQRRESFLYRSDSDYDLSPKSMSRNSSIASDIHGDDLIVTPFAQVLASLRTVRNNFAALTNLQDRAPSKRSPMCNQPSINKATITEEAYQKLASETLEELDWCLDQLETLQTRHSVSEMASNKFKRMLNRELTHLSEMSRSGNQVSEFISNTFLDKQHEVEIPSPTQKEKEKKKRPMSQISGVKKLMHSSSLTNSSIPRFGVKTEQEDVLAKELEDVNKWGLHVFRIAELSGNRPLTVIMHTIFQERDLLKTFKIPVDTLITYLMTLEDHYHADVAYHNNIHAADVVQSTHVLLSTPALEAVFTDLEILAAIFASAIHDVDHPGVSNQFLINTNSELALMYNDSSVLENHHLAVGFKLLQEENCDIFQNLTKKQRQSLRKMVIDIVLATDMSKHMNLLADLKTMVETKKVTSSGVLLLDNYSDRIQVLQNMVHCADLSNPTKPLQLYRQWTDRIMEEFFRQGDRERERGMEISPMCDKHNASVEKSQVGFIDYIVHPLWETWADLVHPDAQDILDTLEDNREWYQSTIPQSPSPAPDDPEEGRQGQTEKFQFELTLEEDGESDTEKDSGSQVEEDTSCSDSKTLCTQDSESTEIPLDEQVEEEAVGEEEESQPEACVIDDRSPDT
T3 sequence (P27815 1-647 isoform P27815-4): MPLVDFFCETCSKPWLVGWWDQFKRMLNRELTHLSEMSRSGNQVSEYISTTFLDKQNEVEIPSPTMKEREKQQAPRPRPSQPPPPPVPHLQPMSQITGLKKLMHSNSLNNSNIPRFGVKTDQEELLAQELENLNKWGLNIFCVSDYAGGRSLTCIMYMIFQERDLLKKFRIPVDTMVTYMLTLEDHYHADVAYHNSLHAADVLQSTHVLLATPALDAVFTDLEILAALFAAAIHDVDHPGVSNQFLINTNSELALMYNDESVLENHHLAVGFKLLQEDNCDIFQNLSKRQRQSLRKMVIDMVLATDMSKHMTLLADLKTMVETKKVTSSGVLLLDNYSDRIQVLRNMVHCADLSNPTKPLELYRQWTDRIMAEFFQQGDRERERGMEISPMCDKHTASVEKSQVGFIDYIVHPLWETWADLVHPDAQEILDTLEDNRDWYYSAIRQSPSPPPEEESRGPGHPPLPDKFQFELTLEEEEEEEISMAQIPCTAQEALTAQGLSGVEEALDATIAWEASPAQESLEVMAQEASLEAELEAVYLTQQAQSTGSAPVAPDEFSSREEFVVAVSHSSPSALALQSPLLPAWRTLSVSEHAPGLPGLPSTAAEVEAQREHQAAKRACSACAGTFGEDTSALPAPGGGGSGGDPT
T2 sequence (Q07343 1-721 isoform Q07343-3): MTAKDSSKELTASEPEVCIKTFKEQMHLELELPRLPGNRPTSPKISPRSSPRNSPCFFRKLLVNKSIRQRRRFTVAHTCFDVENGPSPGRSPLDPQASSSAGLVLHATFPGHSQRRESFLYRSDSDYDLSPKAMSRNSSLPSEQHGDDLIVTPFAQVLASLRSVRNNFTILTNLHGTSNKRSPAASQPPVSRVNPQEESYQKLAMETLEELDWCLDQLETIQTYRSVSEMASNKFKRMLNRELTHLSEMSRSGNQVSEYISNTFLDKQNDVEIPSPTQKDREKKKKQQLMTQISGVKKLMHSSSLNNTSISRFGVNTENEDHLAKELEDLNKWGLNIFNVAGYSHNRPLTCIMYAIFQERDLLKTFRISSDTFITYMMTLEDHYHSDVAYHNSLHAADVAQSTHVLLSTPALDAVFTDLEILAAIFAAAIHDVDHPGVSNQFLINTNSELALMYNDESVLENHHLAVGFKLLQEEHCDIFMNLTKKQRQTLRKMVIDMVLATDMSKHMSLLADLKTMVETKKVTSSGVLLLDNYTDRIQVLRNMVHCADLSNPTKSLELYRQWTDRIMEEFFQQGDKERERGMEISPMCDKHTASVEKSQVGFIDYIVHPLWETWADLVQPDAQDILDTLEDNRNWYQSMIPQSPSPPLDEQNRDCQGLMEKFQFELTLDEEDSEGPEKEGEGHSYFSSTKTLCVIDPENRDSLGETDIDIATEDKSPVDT

COc1ccc(F)cc1CCC1CCC(CCNCCCCCN2N=C(c3ccc(OC)c(OC)c3)C3CC=CCC3C2=O)O1 (racemic) [Compound 21, 4-(3,4-Dimethoxy-phenyl)-2-[5-(2-{5-[2-(5-fluoro-2-methoxy-phenyl)-ethyl]-thtrahydro-furan-2-yl}-ethylamino)-pentyl]-4,5,8,8a-tetrahydro-2H-phthalazin-1-one]
pIC50 (rodent PDE4): 6.6
PDE4A1/PDE4D3 inhibitory selectivity ratio (human PDE4D3): < 500 fold
PDE4B3/PDE4D3 inhibitory selectivity ratio (human PDE4D3): 100 fold
Ki (human PDE4D3; Example 29, read-out: Ki, human PDE4D3): 0.002 µM
Ki (human PDE4B3): 0.199 µM
Ki (human PDE4A1; Example 29, read-out: Ki, human PDE4A1): > 1 µM
Ki (human PDE4A1; Table 14, read-out: Human PDE4A1 Ki): < 1 µM
immobility, forced-swim test, subchronic (Balb/c mice): did not change immobility
immobility, forced-swim test, acute, higher dose (ICR mice; 3 mg/kg i.p., vs vehicle, P<0.05): significantly reduced immobility
duration of immobility, forced-swim test, acute (ICR mice; 0.3 and 3 mg/kg i.p.): decreased duration of immobility in a dose-dependent manner
efficacy relative to fluoxetine on a molar basis (ICR mice; 21 0.5 μmol/kg vs fluoxetine 65 μmol/kg): 129 fold
half life, mouse liver microsomes [1]: 2.57 h
MLM t1/2 [1]: 2.565 h
metabolism in human liver microsomes ([2]; NADPH, up to 60 min): not detectably metabolized
half-life at 40 μM ([2]; human, liver microsomes, pH 7.4, Table 16, read-out: HLM t1/2): > 1 h

NC1CC1c1cccnc1 (stereo not shown) [2-(pyridine-3-yl)cyclopropanamine]
GRK2 stimulation or inhibition (GRK2): potent stimulators of GRK2

CNCCC1CCC(CCc2cc(F)ccc2OC)O1 (stereo not shown) [Compound 24, (2-{5-[2-(5-Fluoro-2-methoxy-phenyl)-ethyl]-tetrahydro-furan-2-yl}-ethyl)-methyl-amine]
half life, mouse liver microsomes [1]: 0.967 h
MLM t1/2 [1]: 0.975 h
half life, rat liver microsomes ([3]; NADPH): 2.15 h
RLM t1/2 ([3]; Table 16): 2.15 h

COc1ccc(F)cc1CCC1CCC(CCN)O1 (stereo not shown) [Compound 28]
GRK2 stimulation or inhibition (GRK2): potent stimulators of GRK2
improvement in memory (escape latency) (mice): ~10%
